This note sets out measurements from ChEMBL document CHEMBL4715719, “Synthesis and biological properties of polyamine modified flavonoids as hepatocellular carcinoma inhibitors” (Eur J Med Chem, 2016).

Usually inhibition stands for the share of the control response that was lost under treatment. For orientation: MTD means the largest dose that counted as tolerated.

The test system of series [1] is SMMC-7721. The series is described as follows: Antiproliferative activity against human […] cells assessed as inhibition of cell proliferation at 30 uM measured after 48 hrs by MTT assay relative to control. Format: functional. A general note: Formazan colour is commonly taken as a measure of viable cells.
For series [2], the system named is HepG2. In words: Antiproliferative activity against human HepG2 cells assessed as inhibition of cell proliferation at 100 uM measured after 48 hrs by MTT assay relative to control. Format: functional.
In series [3] the test system is HepG2. The series is described as follows: Antiproliferative activity against human HepG2 cells assessed as inhibition of cell proliferation at 30 uM measured after 48 hrs by MTT assay relative to control. Format: functional.
A short description of series [4]: Cytotoxicity against human QSG7701 cells assessed as inhibition of cell proliferation at 100 uM measured after 48 hrs by MTT assay relative to control. Format: cell-based.
For series [5], the system named is SMMC-7721. The series is described as follows: Antiproliferative activity against human […] cells assessed as inhibition of cell proliferation at 100 uM measured after 48 hrs by MTT assay relative to control. Format: functional.
Series [6] is described as follows: Cytotoxicity against human QSG7701 cells assessed as inhibition of cell proliferation at 30 uM measured after 48 hrs by MTT assay relative to control. Format: cell-based.
In series [7] the test system is H22. The series is described as follows: Antitumor activity against mouse H22 cells implanted in Kunming mouse assessed as reduction in tumor weight at 100 mg/kg, iv administered for 7 consecutive days starting from day 8 post inoculation and measured after 16 days (reference value: 2.15 +/- 0.51 g). Format: functional. The settings on record: time 8 day.
The subject of series [8] is H22. The series is described as follows: Antimetastatic activity against mouse H22 cells implanted in Kunming mouse assessed as inhibition of metastasis at 100 mg/kg, iv administered for 7 consecutive days starting from day 11 post inoculation and measured after 18 days relative to control. Format: functional. The settings on record: 192 h, time 8 day.
In series [9] the test system is HepG2. The series is described as follows: Induction of ROS generation in human HepG2 cells at 80 uM after 48 hrs by DCFH-DA staining based assay. Format: functional, cell-based.
Series [10] deals with HepG2. In words: Induction of apoptosis in human HepG2 cells assessed as activation of caspase 3 at 80 uM measured after 48 hrs by immunofluorescence assay. Format: functional, cell-based.
In series [11] the test system is HepG2. In words: Induction of mitochondrial membrane potential loss in human HepG2 cells at 80 uM after 48 hrs by Rh123 staining based assay. Format: functional, cell-based.
A short description of series [12]: Toxicity in Kunming mouse implanted with mouse H22 cells assessed as mouse mortality at 100 mg/kg, iv administered for 7 consecutive days starting from day 8 post inoculation and measured after 16 days. Format: organism-based. The settings on record: in vivo, 192 h, time 8 day.
The subject of series [13] is H22. In words: Antitumor activity against mouse H22 cells implanted in Kunming mouse assessed as tumor growth inhibition at 100 mg/kg, iv administered for 7 consecutive days starting from day 8 post inoculation and measured after 16 days relative to control. Format: functional. The settings on record: 192 h, time 8 day, read-out: TGI.
In series [14] the test system is HepG2. The series is described as follows: Induction of lysosomal impairment in human HepG2 cells at 80 uM after 48 hrs by Lyso-tracker Red staining based assay. Format: functional, cell-based.
Series [15] relates to HepG2. The series is described as follows: Induction of apoptosis in human HepG2 cells assessed as activation of caspase 8 at 80 uM measured after 48 hrs by immunofluorescence assay. Format: functional, cell-based.
Series [16] concerns HepG2. In words: Induction of apoptosis in human HepG2 cells assessed as activation of caspase 9 at 80 uM measured after 48 hrs by immunofluorescence assay. Format: functional, cell-based.
Series [17] is described as follows: Toxicity in Kunming mouse implanted with mouse H22 cells assessed as change in body weight at 100 mg/kg, iv administered for 7 consecutive days starting from day 11 post inoculation and measured after 18 days (reference value: 5.2 %). Format: organism-based. The settings on record: in vivo, 192 h, time 8 day.
The nature of series [18]: Toxicity in Kunming mouse implanted with mouse H22 cells assessed as change in mouse body weight at 100 mg/kg, iv administered for 7 consecutive days starting from day 8 post inoculation and measured after 16 days (reference value: 21 %). Format: organism-based. The settings on record: in vivo, 192 h, time 8 day.
For series [19], the system named is HepG2. The series is described as follows: Antiproliferative activity against human HepG2 cells assessed as inhibition of cell proliferation at 1 uM measured after 48 hrs by MTT assay relative to control. Format: functional.
Series [20] has as its system HepG2. In words: Antiproliferative activity against human HepG2 cells assessed as inhibition of cell proliferation at 5 uM measured after 48 hrs by MTT assay relative to control. Format: functional.
Series [21] has as its system H22. In words: Antitumor activity against mouse H22 cells implanted in Kunming mouse assessed as tumor growth inhibition at 0.4 mg/kg, iv administered for 7 consecutive days starting from day 8 post inoculation and measured after 16 days relative to control. The settings on record: 192 h, time 8 day, read-out: TGI. Format: functional.
Series [22] can be described thus: Toxicity in iv dosed Kunming mouse assessed as maximum tolerated dose. Format: organism-based. The settings on record: in vivo.
Series [23] has as its system H22. In words: Antimetastatic activity against mouse H22 cells implanted in Kunming mouse assessed as inhibition of metastasis at 0.4 mg/kg, iv administered for 7 consecutive days starting from day 11 post inoculation and measured after 18 days relative to control. Format: functional. The settings on record: 192 h, time 8 day.
The nature of series [24]: Toxicity in Kunming mouse implanted with mouse H22 cells assessed as mouse mortality at 0.4 mg/kg, iv administered for 7 consecutive days starting from day 8 post inoculation and measured after 16 days. Format: organism-based. The following applies: in vivo, 192 h, time 8 day.
Series [25] relates to SMMC-7721. In words: Antiproliferative activity against human […] cells assessed as inhibition of cell proliferation at 1 uM measured after 48 hrs by MTT assay relative to control. Format: functional.
Series [26] is described as follows: Cytotoxicity against human QSG7701 cells assessed as inhibition of cell proliferation at 1 uM measured after 48 hrs by MTT assay relative to control. Format: cell-based.
Series [27] in a line: Cytotoxicity against human QSG7701 cells assessed as inhibition of cell proliferation at 5 uM measured after 48 hrs by MTT assay relative to control. Format: cell-based.
The nature of series [28]: Toxicity in Kunming mouse implanted with mouse H22 cells assessed as change in body weight at 0.4 mg/kg, iv administered for 7 consecutive days starting from day 11 post inoculation and measured after 18 days (reference value: 5.2 %). Format: organism-based. The settings on record: in vivo, 192 h, time 8 day.
In series [29] the test system is SMMC-7721. In words: Antiproliferative activity against human […] cells assessed as inhibition of cell proliferation at 5 uM measured after 48 hrs by MTT assay relative to control. Format: functional.
Series [30] relates to H22. The series is described as follows: Antimetastatic activity against mouse H22 cells implanted in Kunming mouse assessed as number of metastatic focus at 0.4 mg/kg, iv administered for 7 consecutive days starting from day 11 post inoculation and measured after 18 days (reference value: 5.73 +/- 14.6). Format: functional. The following applies: time 8 day.
Series [31] can be described thus: Toxicity in Kunming mouse implanted with mouse H22 cells assessed as change in mouse body weight at 0.4 mg/kg, iv administered for 7 consecutive days starting from day 8 post inoculation and measured after 16 days (reference value: 21 %). Format: organism-based. The following applies: in vivo, 192 h, time 8 day.
In series [32] the test system is H22. In words: Antitumor activity against mouse H22 cells implanted in Kunming mouse assessed as reduction in tumor weight at 0.4 mg/kg, iv administered for 7 consecutive days starting from day 8 post inoculation and measured after 16 days (reference value: 2.15 +/- 0.51 g). The settings on record: time 8 day. Format: functional.
Series [33] has as its system Mus musculus. In words: Upregulation of phosphorylated p38 in Kunming mouse implanted with mouse H22 cells assessed as activation of p53 at 800 uM measured after 48 hrs by immunofluorescence analysis. Format: functional.
Series [34] relates to Mus musculus. The series is described as follows: Upregulation of phosphorylated JNK in Kunming mouse implanted with mouse H22 cells assessed as activation of p53 at 800 uM measured after 48 hrs by immunofluorescence analysis. Format: functional.
Series [35] relates to Mus musculus. In words: Downregulation of Bcl-2 in Kunming mouse implanted with mouse H22 cells at 800 uM measured after 48 hrs by immunofluorescence analysis. Format: functional.

SMILES strings stand for the structures. Active and inactive are the calls of the source. No cut-off for these calls is given here. Where only a bound is given, the exact number is not on record here.

Consider `CN(C)CCNCC(=O)NCc1cccc2c(=O)cc(-c3cccc4ccccc34)oc12`, for which the inhibition at 30 µM in the series on SMMC-7721 [1] and in the series with HepG2 [3] was below 5% each time. The inhibition at 100 µM in the series on HepG2 [2] is 7.5%; in the series with SMMC-7721 [5], 16.6%. In addition, in [4], the inhibition at 48 h, 100 µM turned out to be 17.9%. Also, the inhibition at 48 h, 30 µM in series [6] is below 5%.
For the molecule `O=c1c(O)c(-c2ccc(O)c(O)c2)oc2cc(O)cc(O)c12` [QUERCETIN], the Activity with H22 [7] was 1.3 g; in series [12], “Non-Toxic”; in series [17] it was 2.1%; in series [18] it was 6.3%. For the same molecule, the figures for the inhibition at 30 µM with SMMC-7721 [1] and in the series on HepG2 [3] were 29.5% and 33.2%, respectively. Moreover, the inhibition in vivo at 100 mg/kg came out at 34.1% in the series with H22 [8] and 39.7% with H22 [13]. Moreover, the values for the inhibition at 100 µM in the series on HepG2 [2] and with SMMC-7721 [5] were 56.3% and 62.9%, respectively. Also, the outcome with HepG2 [9], with HepG2 [10], in the series with HepG2 [11], in the series with HepG2 [14], in the series on HepG2 [15] and with HepG2 [16] was Active. Moreover, the inhibition at 48 h, 100 µM in [4] came out at 36%. In series [6], the inhibition at 48 h, 30 µM was below 5%.
`NCCCCNCCCCNCC(=O)NCc1cccc2c(=O)cc(-c3cccc4ccccc34)oc12`: the inhibition at 30 µM came to 70.2% with SMMC-7721 [1] and 62% with HepG2 [3]. Besides, the values for the inhibition at 100 µM in the series with HepG2 [2] and in the series on SMMC-7721 [5] were 75.9% and 85.5%, respectively. Besides, in [4], the inhibition at 48 h, 100 µM amounted to 74.4%. Also, the inhibition at 48 h, 30 µM in series [6] stood at 46.7%.
As for `NCCCCNCC(=O)NCc1cccc2c(=O)cc(-c3cccc4ccccc34)oc12`, the inhibition at 30 µM in the series on SMMC-7721 [1] and in the series on HepG2 [3] was below 5% each time. Besides, the inhibition at 100 µM with HepG2 [2] amounted to 16.1%; in the series on SMMC-7721 [5] it was 39.8%. In [4], the inhibition at 48 h, 100 µM amounted to 10.6%. Further, the inhibition at 48 h, 30 µM in [6] was below 5%.
`O=C1c2c(O)ccc(O)c2C(=O)c2c(NCCNCCO)ccc(NCCNCCO)c21` [MITOXANTRONE]: the figures for the inhibition at 1 µM with HepG2 [19] and in the series on SMMC-7721 [25] were 41.2% and 20.5%, respectively. For the same molecule, the inhibition at 5 µM in the series with HepG2 [20] was found to be 78.6%; in the series with SMMC-7721 [29], 62.2%. In addition, the results for the inhibition in vivo at 0.4 mg/kg in the series with H22 [21] and with H22 [23] were 73.4% and 49.2%, respectively. In addition, in series [22], the MTD stood at 0.4 mg/kg. The Activity entry is “Non-Toxic” in series [24]; -0.8% in series [28]; 29.1 in the series with H22 [30]; -6.6% in series [31]; 0.57 g with H22 [32]. For the same molecule, the inhibition at 48 h, 1 µM in [26] was found to be 75.8%. Further, the inhibition at 48 h, 5 µM in series [27] was found to be 82.5%.
In the case of `CCCCNCC(=O)NCc1cccc2c(=O)cc(-c3cccc4ccccc34)oc12`, the figures for the inhibition at 30 µM with SMMC-7721 [1] and in the series on HepG2 [3] were 14.6% and 6%, respectively. For the same molecule, the inhibition at 100 µM in the series with HepG2 [2] worked out at 21.6%; with SMMC-7721 [5], 28.4%. Further, the inhibition at 48 h, 100 µM in series [4] is 41.7%. Moreover, the inhibition at 48 h, 30 µM in series [6] is 19.6%.
With `CC(=O)Oc1ccccc1C(=O)O`, the result in the series with Mus musculus [33], in the series on Mus musculus [34] and with Mus musculus [35] was Active.
Take `NCCCCNCCCNCC(=O)NCc1cccc2c(=O)cc(-c3cccc4ccccc34)oc12`: the inhibition at 30 µM with SMMC-7721 [1] was 7.6%; in the series on HepG2 [3], below 5%. The inhibition at 100 µM in the series with HepG2 [2] turned out to be 28.9%; with SMMC-7721 [5], 32.5%. In addition, the inhibition at 48 h, 100 µM in series [4] was 22.4%. Further, the inhibition at 48 h, 30 µM in series [6] was below 5%.
